Experimental data taken from patent US20040191842A1, “Chemopreventive and therapeutic aspects of polyphenolic compositions and assays” (Medical College of Georgia Research Institute, Inc., priority 2002, published 2004).

Assays:
Assay type in all cases: cell-based, human
NHEK = experiment: MTT assay (SDH activity), NHEK; conditions: EGCG at various concentrations or 0.2 mg/ml GTP, 24 h
Excerpt: Succinate dehydrogenase activity assay (MTT assay).

MCF7 cells = experiment: BrdU incorporation assay, MCF7 cells; conditions: increasing EGCG
Experimental: DNA synthesis analysis using BrdU incorporation method. The BrdU cell proliferation kit was purchased from Oncogene Research Products, Boston, Mass. Cells were culture in 96 well plates with 10^4 cells/well. After EGCG and GTPPs treatments, cells were labeled by BrdU, reacted with BrdU antibody and the color reaction was carried out according to the protocol provided by the manufacturer. The coloration was measure by a Thermo MAX microplate reader using wavelengths 450 nm-562 nm.

OSC2 cells = experiment: Cell invasion/migration assay (Transwell), OSC2 cells; conditions: 50 μM EGCG
Experimental: Cell invasion/migration assay. The invasion/migration assays were conducted using a Transwell apparatus (Costar) with 6.5 mm diameter wells and membranes of 8 μm pore size. The invasiveness at each time point was tested in DMEM/F12 medium immediately following the cell growth assay, by seeding 10^5 cells in each transwell. Cells migrated across the transwell membrane were counted as per microscopic field.

Apaf-1 = experiment: Western blot of Apaf-1 in mammary epithelial cells; conditions: 15 μM EGCG, 24 h
Experimental: Western blot analysis. The keratinocytes and the mammary epithelial cells were placed in KGM-2 and MEGM, respectively, overnight prior to treatment. Cells were lysed, after 24-hour treatment, in RIPA buffer (1% NP-40, 1% sodium deoxycholate, 0.1% SDS, 0.15 M NaCl, 0.01 M sodium phosphate, pH 7.2, and 1% Trasylol) containing proteinase inhibitors (1 mM PMSF, 1 μg/ml each of aprotinin, leupeptin, and pepstatin). The concentration of protein in each sample was determined using the BioRad DC Protein Assay and spectrophotometry. 50 μg of protein from each sample and a BioRad molecular weight standard marker were run on a 10% SDS-PAGE, followed by transfer to nitrocellulose membranes. Nonspecific binding to the membranes was blocked with 10% nonfat milk. Primary polyclonal (rabbit) antibodies and a horseradish peroxidase-conjugated goat anti-rabbit secondary antibody were used in conjunction with the ECL Chemiluminescence Kit (Amersham Pharmacia Biotech, New Jersey) and membranes were exposed to radiographic films for detection. Western blots were digitized for comparison of the intensity for each band using the ImageTool image analysis software program (University of Texas Health Science Center, San Antonio, Tex.). The integrated density of each band was measured using identical 1480 pixel areas of each Apfa-1 or Actin band at a scale of densities from 0 to 255. […]

OSC-2 cells = experiment: Intracellular ROS levels (DFDA assay), OSC-2 cells
Experimental: (§1) Measurement of intracellular ROS levels. The ROS assay measures the accumulation of intracellular ROS levels. The non-fluorescent dye DFDA passively diffuses into cells, where the acetates are cleaved by intracellular esterases. […] Thus, values of the fluorescence in the cell cultures are constantly rising in this assay. Cells (1.5×10^4 cells/well) were incubated with Hallam's physiological saline (HPS) containing DFDA (10 μM) in a 96-well microplate for 30 minutes at 37° C. After the incubation, cells were washed three times with HPS and then incubated with HPS containing EGCG (15-200 μM) or diamide (5 mM) for the indicated time periods. The intracellular ROS levels were measured by using a fluorescence plate reader (BIO-TEK FL600, Bio-Tek Instruments, Inc., Winooski, Vt.), at an excitation wavelength of 485 nm and an emission wavelength of 530 nm.
as §1, with “assay (DFDA assay)” for “assay”, “dye dichlorofluorescein diacetate (DFDA)” for “dye DFDA”, “this assay due to the accumulation of ROS.” for “this assay.”, “EGCG (50-200” for “EGCG (15-200”, “indicated times.” for “indicated time periods.”

caspase 3 = experiment: Caspase 3 activity assay, MCF7(C) caspase 3+ cells; conditions: increasing EGCG or 0.2 mg/ml GTPPs, 24 h
Experimental: Caspase 3 activity assay. The Caspase 3 Apoptosis Detection Kit was purchased from Santa Cruz Biotech. Inc. In a 24 well tissue culture plate, 10^5 cells/well of cells in triplicates were plated. […] To each well, 100 μl of 2×reaction buffer was added with […]. Finally, 5 μl of DEVD-AFC substrate was added to each well containing cell lysates. The reaction mixtures were incubated for 1 hour at 37° C. The caspase 3 activity in each well was measured using a fluorescence microplate reader set for 405 nm excitation and 505 nm emission.

caspase 14 = experiment: Immunoblot of caspase 14 protein in NHEK
Experimental: (§2) To identify additional factors those suppress EGCG -induced apoptosis and facilitate cell differentiation in NHEK, exponentially growing NHEK (Cambrex, Baltimore, Md.) were exposed to 100 μM EGCG for 0, 2, 6 and 24 hours, prior to total RNA isolation using the Qiagen RNeasy mini kit (Valencia, Calif.), which was followed by RT-PCR labeling and hybridization with the Human Apoptosis Macroarray membrane (Sigma-Genosys, The Woodlands, Tex.). Total cell lysates also were collected following a variety of EGCG treatments. The protein levels for caspase 14 and p21 were determined by immuno-blotting using antibodies specific for caspase 14 and p21 (Santa Cruz Biotechnology, Santa Cruz, Calif.).

p21 = experiment: Immunoblot of p21 protein in NHEK; conditions: EGCG 100 μM or higher, beyond 24 hours
Experimental: as §2

## O=C(O[C@@H]1Cc2c(O)cc(O)cc2O[C@@H]1c1cc(O)c(O)c(O)c1)c1cc(O)c(O)c(O)c1 [EGCG, (−)-epigallocatechin-3-gallate]
NHEK
  SDH activity (MTT assay): not significantly affected
MCF7 cells
  BrdU incorporation: able in incorporate BrdU efficiently
OSC2 cells; 24 hours
  cells invading the membrane, of control: about 30%
OSC2 cells; 96 hours
  cells invading the membrane, of control: 20%
Apaf-1
  Apaf-1 protein level increase above control (densitometry): 47%
OSC-2 cells; 50 μM EGCG, 60 minute exposure
  intracellular ROS levels vs controls: remained comparable to the controls
OSC-2 cells; 50 or 200 μM EGCG, beyond 120 minutes
  intracellular ROS levels vs control: remained significantly higher than the control levels
OSC-2 cells; first hour
  H2O2 concentration producing ROS equivalent to 200 μM EGCG: 50 µM
Caspase 3
  caspase 3 activation: demonstrated activated caspase 3
Caspase 14; 30 μM EGCG (Example 10)
  production of immunoreactive caspase 14 increased: 5 fold
Caspase 14; 30 μM EGCG, 48 hours
  increase in caspase 14 protein: 26 fold
Caspase 14; 100 μM EGCG, 24 hours
  increase in caspase 14 protein: 2 fold
Caspase 14; 100 μM EGCG, 48 hours
  increase in caspase 14 protein: 5 folds
Caspase 14; EGCG at or below 50 μM, 24 hours
  increase in caspase 14 protein: > 5 fold
p21
  p21 protein level, of controls: below 50%
